Assay results from patent US10519211B2, “Compounds as peptidic GLP1/glucagon/GIP receptor agonists” (SANOFI, priority 2016, dated 2019).
Numbered stars: 1 amine (or outer) side, 2 acyl side, 3 side chain; on linkers, the order of the positions; unused ones are H or OH. Square brackets hold non-standard residues; d marks the D form. Side chains are listed from the residue outwards. Peptide text beside a SMILES is read from it. * marks the point of attachment. Adipoyl(4R-palmitoylamino) = CCCCCCCCCCCCCCCC(=O)N[C@H](CCC(=O)*)CC(=O)O; γGlu = O=C(O)[C@H](CCC(=O)[*:2])N[*:1]; Stearoyl = CCCCCCCCCCCCCCCCCC(=O)*; AEEA = NCCOCCOCC(=O)O; Aib = CC(C)(N)C(=O)O

Assays:
[1] = target: T1, human GLP-1 receptor (hGLP-1 R) (Homo sapiens, UniProt P43220); experiment: cAMP response (HTRF) of HEK-293 cells stably expressing human GLP-1 receptor; format: cell-based; details: Table 8; cAMP formation
T1 construct: expressed in transfected cells; host or cells: HEK-293
T1 sequence (P43220 24-463): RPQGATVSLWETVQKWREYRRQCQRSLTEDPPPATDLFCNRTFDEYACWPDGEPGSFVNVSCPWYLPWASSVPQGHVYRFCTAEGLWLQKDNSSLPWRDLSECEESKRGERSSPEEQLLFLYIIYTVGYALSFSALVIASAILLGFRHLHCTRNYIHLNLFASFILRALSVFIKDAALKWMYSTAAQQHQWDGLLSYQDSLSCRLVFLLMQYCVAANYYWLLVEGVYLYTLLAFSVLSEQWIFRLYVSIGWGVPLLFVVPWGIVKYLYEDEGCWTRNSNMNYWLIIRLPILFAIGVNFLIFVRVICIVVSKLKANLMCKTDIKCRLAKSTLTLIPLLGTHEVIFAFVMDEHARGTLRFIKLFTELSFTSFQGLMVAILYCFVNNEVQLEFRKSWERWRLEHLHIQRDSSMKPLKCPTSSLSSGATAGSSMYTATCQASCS
Experimental: (§1) cAMP content of cells was determined using a kit from Cisbio Corp. (cat. no. 62AM4PEJ) based on HTRF (Homogenous Time Resolved Fluorescence). For preparation, cells were split into T175 culture flasks and grown overnight to near confluency in medium (DMEM/10% FBS). Medium was then removed and cells washed with PBS lacking calcium and magnesium, followed by proteinase treatment with accutase (Sigma-Aldrich cat. no. A6964). Detached cells were washed and resuspended in assay buffer (1×HBSS; 20 mM HEPES, 0.1% BSA, 2 mM IBMX) and cellular density determined. They were then diluted to 400000 cells/ml and 25 μl-aliquots dispensed into the wells of 96-well plates. For measurement, 25 μl of test compound in assay buffer was added to the wells, followed by incubation for 30 minutes at room temperature.
(§2) Potencies of peptidic compounds at the GLP-1, glucagon and GIP receptors were determined by exposing cells expressing human glucagon receptor (hGlucagon R), human GIP receptor (hGIP-R) or human GLP-1 receptor (hGLP-1 R) to the listed compounds at increasing concentrations and measuring the formed cAMP as described in Methods.

[2] = Chemical stability assessment (UPLC-UV, relative purity loss); format: physicochemical; details: 1 mg/ml, 25 mM acetate buffer pH 4.5 with m-cresol (buffer system A)
Procedure, shortened: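 Peptide at 1 mg/mL (purity-corrected) in 25 mM acetate pH 4.5 with methionine, m-cresol and glycerol, sterile-filtered, stored 28 days at 40° C. Purity measured by UPLC-UV as peptide peak area fraction at start and after storage; value is relative percent purity loss.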

[3] = Solubility assessment (UPLC-UV); format: physicochemical; details: acetate buffer pH 4.5, 2.7 mg/ml m-cresol (buffer system A), target 10 mg/ml
Procedure, shortened: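 Peptides at 10 mg/mL (purity-corrected, by UPLC/MS) in 100 mM acetate buffer pH 4.5 with 2.7 mg/ml m-Cresol, gently agitated 1 hour, then centrifuged 15 min at 2500 RCF. Supernatant, diluted 1:10, quantified by UPLC-UV peak area against a reference peptide standard curve, extinction-coefficient corrected.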

[4] = Dynamic light scattering (DLS), hydrodynamic radius as surrogate for interaction parameter kD; format: physicochemical; details: for Delta Rh [nm] = Rh5 − Rh1: DLS buffer system A pH 4.5; for Rh1 [nm] c= 1 mg/ml / Rh5 [nm] c = 5 mg/ml: hydrodynamic radius, DLS buffer system A pH 4.5, DLS method C, 25° C.
Experimental: For every peptide solution, the hydrodynamic radius Rh and the diffusion constant D (related via the Stokes-Einstein equation) were determined as an average over triplicates. Both parameters were determined at different concentrations (e.g., Rh1 and D1: 1 mg/ml and Rh5 and D5: 5 mg/ml) in the same buffer system. The difference of these parameters between low and high peptide concentration is a surrogate for the DLS interaction parameter kD. Rh5<Rh1 or D5>D1 correspond to kD>0 and therefore to repulsive inter-particle interactions that result in improved physical (or colloidal) stability.
DLS buffer system A) 25 mM acetate buffer pH4.5, 3 mg/mL L-Methionine, 2.7 mg/mL m-cresol, 18 mg/mL Glycerol 85%
DLS Method C: DLS measurements were performed on a DynaPro Plate Reader II (Wyatt Technology, Santa Barbara, Calif., US) and using one of the following black, low volume, and non-treated plates: polystyrene 384 assay plate with clear bottom (Corning, N.Y., US), polystyrene 96 assay plate with clear bottom (Corning, N.Y., US), cyclo olefin polymer (COP) 384 assay plate with clear bottom (Aurora, Mont., US), or polystyrene 384 assay plate with clear bottom (Greiner Bio-One, Germany). The data were processed with the Dynamics software provided by Wyatt Technology. Parameters of the particle size distribution were determined with non-negatively constrained least squares (NNLS) methods using DynaLS algorithms. Measurements were taken at 25° C. with an 830 nm laser light source at an angle of 158°.
The hydrodynamic radius radius Rh of peptide samples was determined at different peptide concentrations (1 mg/ml and 5 mg/ml) in DLS buffer system A using DLS method C as described in Methods as surrogate for the DLS interaction parameter kD.

[5] = target: T2, human glucagon receptor (hGlucagon R) (Homo sapiens, UniProt P47871); experiment: cAMP response (HTRF) of HEK-293 cells stably expressing human glucagon receptor; format: cell-based; details: Table 8; cAMP formation
T2 construct: expressed in transfected cells; host or cells: HEK-293
T2 sequence (P47871 26-477): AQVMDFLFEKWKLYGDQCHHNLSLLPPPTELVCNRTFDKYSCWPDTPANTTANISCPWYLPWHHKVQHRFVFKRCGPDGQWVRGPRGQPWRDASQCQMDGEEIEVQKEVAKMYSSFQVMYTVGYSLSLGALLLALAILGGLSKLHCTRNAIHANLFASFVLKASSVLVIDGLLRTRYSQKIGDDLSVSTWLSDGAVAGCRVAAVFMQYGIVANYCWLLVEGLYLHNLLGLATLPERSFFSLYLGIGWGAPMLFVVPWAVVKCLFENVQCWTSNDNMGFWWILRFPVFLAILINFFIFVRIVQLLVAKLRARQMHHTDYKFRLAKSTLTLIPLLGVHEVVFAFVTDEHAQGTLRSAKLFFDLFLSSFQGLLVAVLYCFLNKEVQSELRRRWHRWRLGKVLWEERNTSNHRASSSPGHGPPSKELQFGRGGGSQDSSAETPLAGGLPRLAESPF
Experimental: as §1, §2

[6] = Thioflavin T (ThT) assay for physical stability (fibrillation); format: physicochemical; details: 3 mg/ml, 100 mM acetate pH 4.5 with m-cresol, shaking at 37° C.
Procedure, shortened: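 Peptide at 3 mg/ml with 100 μM ThT in 100 mM acetate pH 4.5 with m-cresol, stressed at 37° C by cycles of 10 s shaking at 960 rpm and 50 s rest. Fluorescence read every 20 minutes, eight replicates; lag time in hours.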

EC50 [1]	Chemical stability [relative purity loss 28 days 40° C.] (%) at pH 4.5 [2]	solubility at 1 h [3]	Delta Rh [nm] = Rh5 − Rh1 [4]	Rh1 [nm] c= 1 mg/ml [4]	Rh5 [nm] c = 5 mg/ml [4]	EC50 [5]	Lag time before increase [6]	Structure (SMILES)
5.7 pM	5.5%	> 9300 µg/mL	−0.2 nm	2.7 nm	2.4 nm			CCCCCCCCCCCCCCCC(=O)N[C@@H](CCC(=O)NCCCC[C@H](NC(=O)[C@H](CC(C)C)NC(=O)[C@H](CCCCN)NC(=O)[C@H](CO)NC(=O)[C@H](CC(C)C)NC(=O)[C@H](CC(=O)O)NC(=O)[C@H](CO)NC(=O)[C@@H](NC(=O)[C@H](Cc1ccccc1)NC(=O)[C@@H](NC(=O)CNC(=O)[C@H](CCC(N)=O)NC(=O)C(C)(C)NC(=O)[C@@H](N)Cc1c[nH]cn1)[C@@H](C)O)[C@@H](C)O)C(=O)N[C@@H](CCC(=O)O)C(=O)N[C@@H](CCCCN)C(=O)N[C@@H](CCC(N)=O)C(=O)N[C@@H](CCCNC(=N)N)C(=O)N[C@@H](CCC(N)=O)C(=O)NC(C)(C)C(=O)N[C@@H](CCC(=O)O)C(=O)N[C@@H](Cc1ccccc1)C(=O)N[C@H](C(=O)N[C@@H](CCC(=O)O)C(=O)N[C@@H](Cc1c[nH]c2ccccc12)C(=O)N[C@@H](CC(C)C)C(=O)N[C@@H](CCCCN)C(=O)N[C@@H](C)C(=O)NCC(=O)NCC(=O)N1CCC[C@H]1C(=O)N1CCC[C@H]1C(=O)N[C@@H](CO)C(=O)NC(C)(C)C(=O)N[C@@H](CCCCN)C(=O)N1CCC[C@H]1C(=O)N1CCC[C@H]1C(=O)N1CCC[C@H]1C(=O)N[C@@H](CCCCN)C(N)=O)[C@@H](C)CC)C(=O)O [SEQ ID NO: 14, H-Aib-Q-G-T-F-T-S-D-L-S-K-L-K[gGlu-Palm]-E-K-Q-R-Q-Aib-E-F-I-E-W-L-K-A-G-G-P-P-S-Aib-K-P-P-P-K-NH2]
	5.4%	> 9300 µg/mL				22 pM	>45 h	CCCCCCCCCCCCCCCC(=O)N[C@@H](CCC(=O)N[C@@H](CCC(=O)NCCCC[C@H](NC(=O)[C@H](CC(C)C)NC(=O)[C@H](CCCCN)NC(=O)[C@H](CO)NC(=O)[C@H](CC(C)C)NC(=O)[C@H](CC(=O)O)NC(=O)[C@H](CO)NC(=O)[C@@H](NC(=O)[C@H](Cc1ccccc1)NC(=O)[C@@H](NC(=O)CNC(=O)[C@H](CCC(N)=O)NC(=O)C(C)(C)NC(=O)[C@@H](N)Cc1c[nH]cn1)[C@@H](C)O)[C@@H](C)O)C(=O)N[C@@H](CCC(=O)O)C(=O)N[C@@H](CCCCN)C(=O)N[C@@H](CCC(N)=O)C(=O)N[C@@H](CCCNC(=N)N)C(=O)N[C@@H](CCC(N)=O)C(=O)NC(C)(C)C(=O)N[C@@H](CCC(=O)O)C(=O)N[C@@H](Cc1ccccc1)C(=O)N[C@H](C(=O)N[C@@H](CCC(=O)O)C(=O)N[C@@H](Cc1c[nH]c2ccccc12)C(=O)N[C@@H](CC(C)C)C(=O)N[C@@H](CCCCN)C(=O)N[C@@H](C)C(=O)NCC(=O)NCC(=O)N[C@@H](Cc1c[nH]cn1)C(=O)N1CCC[C@H]1C(=O)N[C@@H](CO)C(=O)NC(C)(C)C(=O)N[C@@H](CCCCN)C(=O)N1CCC[C@H]1C(=O)N1CCC[C@H]1C(=O)N1CCC[C@H]1C(=O)N[C@@H](CCCCN)C(N)=O)[C@@H](C)CC)C(=O)O)C(=O)O [SEQ ID NO: 12, H-Aib-Q-G-T-F-T-S-D-L-S-K-L-K[gGlu-gGlu-Palm]-E-K-Q-R-Q-Aib-E-F-I-E-W-L-K-A-G-G-H-P-S-Aib-K-P-P-P-K-NH2]
2.4 pM							>45 h	CCCCCCCCCCCCCCCC(=O)N[C@H](CCC(=O)NCCOCCOCC(=O)N[C@@H](CCC(=O)NCCCC[C@H](NC(=O)[C@H](CC(C)C)NC(=O)[C@H](CCCCN)NC(=O)[C@H](CO)NC(=O)[C@H](CC(C)C)NC(=O)[C@H](CC(=O)O)NC(=O)[C@H](CO)NC(=O)[C@@H](NC(=O)[C@H](Cc1ccccc1)NC(=O)[C@@H](NC(=O)CNC(=O)[C@H](CCC(N)=O)NC(=O)C(C)(C)NC(=O)[C@@H](N)Cc1c[nH]cn1)[C@@H](C)O)[C@@H](C)O)C(=O)N[C@@H](CCC(=O)O)C(=O)N[C@@H](CCCCN)C(=O)N[C@@H](CCC(N)=O)C(=O)N[C@@H](CCCNC(=N)N)C(=O)N[C@@H](CCC(N)=O)C(=O)NC(C)(C)C(=O)N[C@@H](CCC(=O)O)C(=O)N[C@@H](Cc1ccccc1)C(=O)N[C@H](C(=O)N[C@@H](CCC(=O)O)C(=O)N[C@@H](Cc1c[nH]c2ccccc12)C(=O)N[C@@H](CC(C)C)C(=O)N[C@@H](CCCCN)C(=O)N[C@@H](C)C(=O)NCC(=O)NCC(=O)N[C@@H](Cc1c[nH]cn1)C(=O)N1CCC[C@H]1C(=O)N[C@@H](CO)C(=O)NC(C)(C)C(=O)N[C@@H](CCCCN)C(=O)N1CCC[C@H]1C(=O)N1CCC[C@H]1C(=O)N1CCC[C@H]1C(=O)N[C@@H](CCCCN)C(N)=O)[C@@H](C)CC)C(=O)O)CC(=O)O [SEQ ID NO: 20, H-Aib-Q-G-T-F-T-S-D-L-S-K-L-K[gGlu-AEEA-gAAA-Palm]-E-K-Q-R-Q-Aib-E-F-I-E-W-L-K-A-G-G-H-P-S-Aib-K-P-P-P-K-NH2] (H-H[Aib]QGTFTSDLSKLK([γGlu-AEEA-Adipoyl(4R-palmitoylamino)])EKQRQ[Aib]EFIEWLKAGGHPS[Aib]KPPPK-NH2)
5.7 pM	5.6%	> 8900 µg/mL	−0.2 nm	2.7 nm	2.6 nm			CCCCCCCCCCCCCCCCCC(=O)N[C@@H](CCC(=O)NCCCC[C@H](NC(=O)[C@H](CC(C)C)NC(=O)[C@H](CCCCN)NC(=O)[C@H](CO)NC(=O)[C@H](CC(C)C)NC(=O)[C@H](CC(=O)O)NC(=O)[C@H](CO)NC(=O)[C@@H](NC(=O)[C@H](Cc1ccccc1)NC(=O)[C@@H](NC(=O)CNC(=O)[C@H](CCC(N)=O)NC(=O)C(C)(C)NC(=O)[C@@H](N)Cc1c[nH]cn1)[C@@H](C)O)[C@@H](C)O)C(=O)N[C@@H](CCC(=O)O)C(=O)N[C@@H](CCCCN)C(=O)N[C@@H](CCC(N)=O)C(=O)N[C@@H](CCCNC(=N)N)C(=O)N[C@@H](CCC(N)=O)C(=O)NC(C)(C)C(=O)N[C@@H](CCC(=O)O)C(=O)N[C@@H](Cc1ccccc1)C(=O)N[C@H](C(=O)N[C@@H](CCC(=O)O)C(=O)N[C@@H](Cc1c[nH]c2ccccc12)C(=O)N[C@@H](CC(C)C)C(=O)N[C@@H](CCCCN)C(=O)N[C@@H](C)C(=O)NCC(=O)NCC(=O)N1CCC[C@H]1C(=O)N1CCC[C@H]1C(=O)N[C@@H](CO)C(=O)NC(C)(C)C(=O)N[C@@H](CCCCN)C(=O)N1CCC[C@H]1C(=O)N1CCC[C@H]1C(=O)N1CCC[C@H]1C(=O)N[C@@H](CCCCN)C(N)=O)[C@@H](C)CC)C(=O)O [SEQ ID NO: 15, H-Aib-Q-G-T-F-T-S-D-L-S-K-L-K[gGlu-Stea]-E-K-Q-R-Q-Aib-E-F-I-E-W-L-K-A-G-G-P-P-S-Aib-K-P-P-P-K-NH2] (H-H[Aib]QGTFTSDLSKLK([γGlu-Stearoyl])EKQRQ[Aib]EFIEWLKAGGPPS[Aib]KPPPK-NH2)
